The term IC50 denotes the concentration that gives 50% inhibition. High values mean weaker potency, low ones greater potency.

Molecules are shown by their SMILES.

Chain of Serine/threonine-protein kinase PLK1 (P53350 whole entry): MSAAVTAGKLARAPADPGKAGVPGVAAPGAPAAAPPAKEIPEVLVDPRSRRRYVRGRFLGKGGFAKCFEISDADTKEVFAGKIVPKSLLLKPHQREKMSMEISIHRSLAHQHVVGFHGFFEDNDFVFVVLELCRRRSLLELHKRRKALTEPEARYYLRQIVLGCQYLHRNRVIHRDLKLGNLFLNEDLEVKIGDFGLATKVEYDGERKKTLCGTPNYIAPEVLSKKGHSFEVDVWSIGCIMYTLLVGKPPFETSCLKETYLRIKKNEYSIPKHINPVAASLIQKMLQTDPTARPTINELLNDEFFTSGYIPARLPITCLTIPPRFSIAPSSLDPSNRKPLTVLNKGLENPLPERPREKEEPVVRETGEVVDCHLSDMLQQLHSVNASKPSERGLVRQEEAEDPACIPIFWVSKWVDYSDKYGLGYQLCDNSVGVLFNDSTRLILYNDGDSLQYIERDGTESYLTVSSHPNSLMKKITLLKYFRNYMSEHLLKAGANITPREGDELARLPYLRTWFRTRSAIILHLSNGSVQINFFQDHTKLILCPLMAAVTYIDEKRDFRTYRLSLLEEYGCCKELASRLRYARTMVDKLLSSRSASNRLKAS

This assay concerns the target Serine/threonine-protein kinase PLK1 (Homo sapiens, UniProt P53350). Nature of the assay: Evaluation of PLK1 Kinase Activity In Vitro. The method, then: The 33P isotope-labeled kinase activity assay (Reaction Biology Corp) was used to determine the IC50 value to evaluate the inhibitory ability of the test compound to human PLK1 protein kinase.Buffer conditions: 20 mM HEPES (pH 7.5), 10 mM MgCl2, 1 mM EGTA, 0.01% Brij35, 0.02 mg/ml BSA, 0.1 mM Na3VO4, 2 mM DTT, 1% DMSOTest steps: At room temperature, the compounds to be tested were dissolved in DMSO to prepare a 10 mM solution for use. The substrate Casein was dissolved in a freshly prepared buffer (with a final concentration of 20 μM), and the tested PLK1 kinase (with a final concentration of 12 nM) was added thereto and mixed well. The acoustic wave pipetting system Echo 550 was used to add the mother solution of the test compound dissolved in DMSO to the above mixed reaction mixture according to the set final concentration gradient (the highest final concentration was 1 μM, 3-fold dilution, 10 gradients). After incubation at room temperature for 20 minutes, 33P-ATP (30 μM) was added, and after incubation at room temperature for 120 minutes, the reaction mixture was spotted on P81 ion exchange filter paper (Whatman #3698-915). After the filter paper was repeatedly washed with 0.75% phosphoric acid solution, the radioactivity of the phosphorylated substrate remaining on the filter paper was measured.
With `CSc1sc(C(N)=O)c2c1-c1nc(Nc3cc(N4CCN(C)CC4)ccc3OC(F)(F)F)ncc1CC2` [US20240140962, Compound 1], it took 4.4 nM to reach half-maximal inhibition (IC50).

For the molecule `CCOc1sc(C(N)=O)c2c1-c1nc(Nc3cc(N4CCN(C)CC4)ccc3OC(F)(F)F)ncc1CC2` [US20240140962, Compound 2], the IC50 was determined as 4.2 nM. `CSc1sc(C(N)=O)c2c1-c1nc(Nc3cc(N4CCNCC4)ccc3OC(F)(F)F)ncc1CC2` [US20240140962, Compound 7]: the 50% inhibitory concentration (IC50) turned out to be 3 nM. The same measure for `CSc1sc(C(N)=O)c2c1-c1nc(Nc3cc(N4CCN(CCO)CC4)ccc3OC(F)(F)F)ncc1CC2` [US20240140962, Compound 8]: 1.7 nM; for `CN1CCN(c2ccc(OC(F)(F)F)c(Nc3ncc4c(n3)-c3csc(C(N)=O)c3CC4)c2)CC1` [US20240140962, Compound 12]: 4 nM.

Turning to `CN1CCN(c2ccc(OC(F)(F)F)c(Nc3ncc4c(n3)-c3c(C5CC5)sc(C(N)=O)c3CC4)c2)CC1` [US20240140962, Compound 16], the IC50 worked out at 5.3 nM. The same measure for `COc1nnc(N2CCN(C)CC2)cc1Nc1ncc2c(n1)-c1c(SC)sc(C(N)=O)c1CC2` [US20240140962, Compound 17]: 5.9 nM; for `CN1CCN(c2ccc(OC(F)(F)F)c(Nc3ncc4c(n3)-c3c(-c5ccco5)sc(C(N)=O)c3CC4)c2)CC1` [US20240140962, Compound 20]: 2.8 nM.

The values are drawn from BindingDB's records for patent US20240140962 (Medshine Discovery, 2024).
